Literature values, collected in patent US20240050452A1, “USE OF C[…] THE TREATMENT OF SEIZURES ASSOCIATED WITH EPILEPSY SYNDROMES IN PATIENTS TAKING BRIVARACETAM” (GW Research Limited, priority 2020, published 2024).

Test system: seizure frequencies
Conditions: increasing CBD dose combined with a constant BRV dose; seizure types not disclosed

## C=C(C)[C@@H]1CCC(C)=C[C@H]1c1c(O)cc(CCCCC)cc1O [CBD, cannabidiol]
  effect on seizure frequencies: reductions in seizure frequencies
